Results reported in patent US20240398868A1 (GEL4MED, INC., priority 2020, published 2024).

Assay: Net charge and isoelectric point of peptide
Assay type: physicochemical
Details: pH 7
Excerpt: The peptide may be purified. For example, the peptide may be lyophilized. […] Other peptides are within the scope of the disclosure.
Exemplary peptides having a charge of +5 to +9 include […](d)[…], […](d)[…], and […](d)[…]. In other embodiments, the purified peptide may be substantially neutral. […] Net charge may be selected by peptide design. Design of electrostatic charge in the peptide hydrogel may allow control of charge interaction with cell membrane and proteins.

## VEVSVSVEV(d)PPTEVSVEVEV
  net charge: net negative charge
